Experimental data as given in the Kinase Knowledgebase extract (Sharma et al. 2016).
Several values for one entry are separate records, joined by “and”; a condition that tells them apart may be missing. Equal entries are not always repeated.

molecular target: MAPK14 (human) (UniProt Q16539); test: Inhibition of LPS-stimulated TNF-alpha Production in Human Monocytic Cells; details: thp.1 monocytic
Sequence (Q16539 whole entry, looked up): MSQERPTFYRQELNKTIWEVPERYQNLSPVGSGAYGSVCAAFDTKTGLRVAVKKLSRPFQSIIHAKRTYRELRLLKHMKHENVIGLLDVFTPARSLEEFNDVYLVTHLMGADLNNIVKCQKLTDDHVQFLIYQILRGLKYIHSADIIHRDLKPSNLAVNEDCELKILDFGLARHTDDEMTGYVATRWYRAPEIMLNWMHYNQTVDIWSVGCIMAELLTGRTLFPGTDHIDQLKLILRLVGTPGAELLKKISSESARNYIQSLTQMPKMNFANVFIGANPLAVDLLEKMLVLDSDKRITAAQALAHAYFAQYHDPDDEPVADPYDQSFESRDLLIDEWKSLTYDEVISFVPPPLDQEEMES

Structure (SMILES) | IC50 [µM]
CCOCn1nnc(-c2ccncc2)c1-c1ccc(F)cc1 | 0.49
COC[C@H](C)Nc1nccc(-c2nn3c(c2-c2ccc(F)cc2)OCC3)n1 | 1.7
CC[C@H](C)Nc1nccc(-c2nn3c(c2-c2ccc(F)cc2)OCC3)n1 | 0.08
C[C@H](Nc1nccc(-c2nn3c(c2-c2ccc(F)cc2)OCC3)n1)c1ccccc1 | > 2
Fc1ccc(-c2c(-c3ccnc(Oc4ccccc4)n3)nn3c2OCCC3)cc1 | > 10

molecular target: MAPK14 (human) (UniProt Q16539); test: Inhibition of LPS Induced TNF-alpha Production in THP-1 Cells; details: thp1

Structure (SMILES) | IC50 [µM]
Cc1ccc(C(N)=O)cc1Nc1nc(N[C@H]2CCNC2)nc(N(C)C2CCCCC2)n1 | 1.3
Cc1ccc(C(N)=O)cc1Nc1nc(NCCc2ccc(F)cc2)nc(N[C@H]2CCNC2)n1 | > 5
Cc1ccc(C(N)=O)cc1Nc1nc(NCC(C)C)nc(N[C@H]2CCNC2)n1 | > 5
CCC(C)N(C)c1nc(Nc2cc(C(N)=O)ccc2C)nc(N[C@H]2CCNC2)n1 (stereo partly specified) | 0.325
COC(=O)c1ccc(C)c(Nc2nc(N[C@H]3CCNC3)nc(N(C)CC(C)(C)C)n2)c1 | > 0.25

molecular target: PIK3CB (Human) (UniProt P42338); test: Assessment of PIK3CB Kinase Activity; details: not given
Sequence (P42338 whole entry, looked up): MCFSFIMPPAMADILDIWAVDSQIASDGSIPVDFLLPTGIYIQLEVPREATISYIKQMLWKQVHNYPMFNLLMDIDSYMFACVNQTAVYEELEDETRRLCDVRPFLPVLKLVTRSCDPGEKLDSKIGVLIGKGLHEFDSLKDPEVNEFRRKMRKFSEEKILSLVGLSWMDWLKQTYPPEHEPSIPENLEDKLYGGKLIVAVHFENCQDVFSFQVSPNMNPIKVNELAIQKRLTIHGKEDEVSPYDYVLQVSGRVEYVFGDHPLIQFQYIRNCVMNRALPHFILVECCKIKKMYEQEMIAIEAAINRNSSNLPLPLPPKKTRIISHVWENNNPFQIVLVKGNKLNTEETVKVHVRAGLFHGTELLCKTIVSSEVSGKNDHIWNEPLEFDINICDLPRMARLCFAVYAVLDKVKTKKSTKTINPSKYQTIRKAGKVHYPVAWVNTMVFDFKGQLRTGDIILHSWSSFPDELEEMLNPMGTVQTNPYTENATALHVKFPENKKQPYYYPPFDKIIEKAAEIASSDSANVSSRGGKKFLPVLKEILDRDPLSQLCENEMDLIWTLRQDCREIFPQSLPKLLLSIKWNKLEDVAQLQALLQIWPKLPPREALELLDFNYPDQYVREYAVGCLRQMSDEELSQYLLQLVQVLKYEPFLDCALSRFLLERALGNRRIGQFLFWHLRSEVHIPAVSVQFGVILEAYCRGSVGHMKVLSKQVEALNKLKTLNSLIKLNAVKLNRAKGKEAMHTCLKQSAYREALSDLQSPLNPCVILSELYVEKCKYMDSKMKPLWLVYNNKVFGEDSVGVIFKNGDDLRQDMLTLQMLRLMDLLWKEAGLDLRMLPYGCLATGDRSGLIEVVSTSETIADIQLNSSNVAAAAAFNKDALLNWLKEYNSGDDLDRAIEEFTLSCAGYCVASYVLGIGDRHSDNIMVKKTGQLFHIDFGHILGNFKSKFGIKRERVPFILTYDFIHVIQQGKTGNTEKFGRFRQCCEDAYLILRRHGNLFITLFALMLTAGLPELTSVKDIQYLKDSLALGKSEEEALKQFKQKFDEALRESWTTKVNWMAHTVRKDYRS

Structure (SMILES) | IC50 [µM]
COCCn1c(Cc2nc(N3CCOCC3)cc(=O)[nH]2)nc2ccccc21 | 0.205
CC(Nc1ccc(F)cc1)c1cc(C(=O)N(C)C)cc2c(=O)cc(N3CCO[C@@H](C)C3)oc12 (stereo partly specified) | 0.064
Cc1c(Cn2ccn3c(=O)cc(C4C=COCC4)nc23)cccc1C(F)(F)F (stereo unspecified) | 0.013
Nc1ncc(-c2cnc3ccc(-c4ccc(C(=O)N5CCN(Cc6ccccn6)CC5)cc4)nn23)cc1C(F)(F)F | 0.979
CN1CC2CN(c3cnc4ncc(-c5ccc6oc(N)nc6c5)cc4n3)CC2C1 (stereo unspecified) | 0.1 to 1

molecular target: EGFR (human) (UniProt P00533); test: not given; details: not given
Sequence (P00533 whole entry, looked up): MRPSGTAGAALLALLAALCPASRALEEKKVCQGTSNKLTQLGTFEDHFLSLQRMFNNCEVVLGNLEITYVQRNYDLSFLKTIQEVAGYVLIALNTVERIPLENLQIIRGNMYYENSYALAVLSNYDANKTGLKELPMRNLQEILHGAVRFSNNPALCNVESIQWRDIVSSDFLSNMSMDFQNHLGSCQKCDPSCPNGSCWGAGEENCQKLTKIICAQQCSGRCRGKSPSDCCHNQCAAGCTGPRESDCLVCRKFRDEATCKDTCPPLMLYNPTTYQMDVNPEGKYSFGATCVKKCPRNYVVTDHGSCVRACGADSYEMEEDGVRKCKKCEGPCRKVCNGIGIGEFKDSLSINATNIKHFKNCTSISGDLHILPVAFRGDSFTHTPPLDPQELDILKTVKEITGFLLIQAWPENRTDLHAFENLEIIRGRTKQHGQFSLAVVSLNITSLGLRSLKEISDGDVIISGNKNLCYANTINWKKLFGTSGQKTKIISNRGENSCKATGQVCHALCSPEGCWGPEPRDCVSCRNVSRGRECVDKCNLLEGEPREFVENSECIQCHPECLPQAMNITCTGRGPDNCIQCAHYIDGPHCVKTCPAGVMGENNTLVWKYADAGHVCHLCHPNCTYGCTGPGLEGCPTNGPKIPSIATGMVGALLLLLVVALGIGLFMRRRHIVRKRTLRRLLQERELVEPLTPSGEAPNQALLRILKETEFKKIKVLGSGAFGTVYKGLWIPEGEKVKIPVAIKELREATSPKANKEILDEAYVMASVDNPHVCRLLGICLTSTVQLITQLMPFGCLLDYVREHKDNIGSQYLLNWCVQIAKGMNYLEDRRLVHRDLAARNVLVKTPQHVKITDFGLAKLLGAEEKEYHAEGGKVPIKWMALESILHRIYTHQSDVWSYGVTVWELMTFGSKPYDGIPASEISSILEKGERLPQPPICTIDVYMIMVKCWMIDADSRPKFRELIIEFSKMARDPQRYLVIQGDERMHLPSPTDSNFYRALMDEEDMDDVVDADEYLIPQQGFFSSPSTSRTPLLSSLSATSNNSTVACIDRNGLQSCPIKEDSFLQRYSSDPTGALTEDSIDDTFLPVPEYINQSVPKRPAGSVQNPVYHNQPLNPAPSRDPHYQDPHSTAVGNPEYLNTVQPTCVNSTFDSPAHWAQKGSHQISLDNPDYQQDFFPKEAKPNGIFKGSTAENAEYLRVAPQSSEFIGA

Structure (SMILES) | IC50 [µM]
C=C=CCOc1cc2c(Nc3ccc(F)c(Cl)c3)ncnc2cc1OC | 0.0238
C=C=CCCCCOc1cc2c(Nc3ccc(F)c(Cl)c3)ncnc2cc1OC | 0.0655
C=C=CCOc1cc2c(Nc3cccc(Cl)c3)ncnc2cc1OC | 0.0169
C=C=CCCCOc1cc2c(Nc3cccc(Cl)c3)ncnc2cc1OC | 0.0285

molecular target: PIK3CA (human) (UniProt P42336); test: Assessment of PIK3CA Kinase Activity; details: not given

Structure (SMILES) | IC50 [µM]
Nc1ncc(-c2cnc3ccc(-c4ccc(C(=O)N5CCN(Cc6ccccn6)CC5)cc4)nn23)cc1C(F)(F)F | 0.016
CN1CC2CN(c3cnc4ncc(-c5ccc6oc(N)nc6c5)cc4n3)CC2C1 (stereo unspecified) | < 0.1

molecular target: EGFR (human) (UniProt P00533); test: not given; details: hn5

Structure (SMILES) | IC50 [µM]
CS(=O)(=O)CCNCc1nc(-c2ccc3ncnc(Nc4ccc(OCc5ccccc5)cc4)c3c2)cs1 | 1.6
CS(=O)(=O)CCNCc1nc(-c2ccc3ncnc(Nc4ccc5c(cnn5Cc5ccccc5)c4)c3c2)cs1 | 0.11
CS(=O)(=O)CCNCc1nc(-c2ccc3ncnc(Nc4ccc(OCc5ccccc5)c(Cl)c4)c3c2)cs1 | 0.23
CS(=O)(=O)CCNCc1nc(-c2ccc3ncnc(Nc4ccc(F)c(Cl)c4)c3c2)cs1 | 0.57

molecular target: EGFR (human) (UniProt P00533); test: not given; details: not given; remark: another data set of the same source

Structure (SMILES) | IC50 [µM]
Cc1ccnc(NS(=O)(=O)c2ccc(Nc3nc(C)c4c(=O)[nH]c(SCc5ccccc5)nc4n3)cc2)n1 | 7.8
Cc1ccnc(NS(=O)(=O)c2ccc(Nc3nc(-c4ccc(O)cc4O)c4c(=O)[nH]c(SCc5ccccc5)nc4n3)cc2)n1 | 5.5
Cc1ccnc(NS(=O)(=O)c2ccc(Nc3nc(C)c4c(=O)[nH]c(NCc5ccccc5)nc4n3)cc2)n1 | 6.6
Cc1ccnc(NS(=O)(=O)c2ccc(Nc3nc(C)c4c(=O)[nH]c(Nc5ccc(S(=O)(=O)O)cc5)nc4n3)cc2)n1 | 8.1
Cc1ccnc(NS(=O)(=O)c2ccc(Nc3nc(C)c4c(=O)[nH]c(Nc5cccc(Cl)c5)nc4n3)cc2)n1 | > 10

molecular target: PIK3CD (Human) (UniProt O00329); test: Assessment of PIK3CD Kinase Activity; details: not given

Structure (SMILES) | IC50 [µM]
COCCn1c(Cc2nc(N3CCOCC3)cc(=O)[nH]2)nc2ccccc21 | 0.27
Cc1c(Cn2ccn3c(=O)cc(C4C=COCC4)nc23)cccc1C(F)(F)F (stereo unspecified) | 0.04
Nc1ncc(-c2cnc3ccc(-c4ccc(C(=O)N5CCN(Cc6ccccn6)CC5)cc4)nn23)cc1C(F)(F)F | 0.093
CN1CC2CN(c3cnc4ncc(-c5ccc6oc(N)nc6c5)cc4n3)CC2C1 (stereo unspecified) | 0.1 to 1

molecular target: EGFR (UniProt P00533); test: not given; details: not given

Structure (SMILES) | IC50 [µM]
O=C1CNCCN(Cc2ccn3ncnc(Nc4ccc5c(cnn5Cc5cccc(F)c5)c4)c23)C1 | 0.078
Cc1cn2ncnc(Nc3ccc4c(cnn4Cc4cccc(F)c4)c3)c2c1CN1CCCNCC1 | 0.13
COC(=O)C1CCN(Cc2ccn3ncnc(Nc4ccc5c(cnn5Cc5cccc(F)c5)c4)c23)CC1 | > 1
Cc1ccn2ncnc(Nc3ccc4c(cnn4Cc4cccc(F)c4)c3)c12 | 0.081
COc1cn2ncnc(Nc3ccc4c(cnn4Cc4cccc(F)c4)c3)c2c1CN1CCCNCC1 | 0.19

molecular target: EGFR (Human), P00533 [T790M/L858R]; test: not given; details: not given
Sequence (P00533 whole entry T790M/L858R, looked up): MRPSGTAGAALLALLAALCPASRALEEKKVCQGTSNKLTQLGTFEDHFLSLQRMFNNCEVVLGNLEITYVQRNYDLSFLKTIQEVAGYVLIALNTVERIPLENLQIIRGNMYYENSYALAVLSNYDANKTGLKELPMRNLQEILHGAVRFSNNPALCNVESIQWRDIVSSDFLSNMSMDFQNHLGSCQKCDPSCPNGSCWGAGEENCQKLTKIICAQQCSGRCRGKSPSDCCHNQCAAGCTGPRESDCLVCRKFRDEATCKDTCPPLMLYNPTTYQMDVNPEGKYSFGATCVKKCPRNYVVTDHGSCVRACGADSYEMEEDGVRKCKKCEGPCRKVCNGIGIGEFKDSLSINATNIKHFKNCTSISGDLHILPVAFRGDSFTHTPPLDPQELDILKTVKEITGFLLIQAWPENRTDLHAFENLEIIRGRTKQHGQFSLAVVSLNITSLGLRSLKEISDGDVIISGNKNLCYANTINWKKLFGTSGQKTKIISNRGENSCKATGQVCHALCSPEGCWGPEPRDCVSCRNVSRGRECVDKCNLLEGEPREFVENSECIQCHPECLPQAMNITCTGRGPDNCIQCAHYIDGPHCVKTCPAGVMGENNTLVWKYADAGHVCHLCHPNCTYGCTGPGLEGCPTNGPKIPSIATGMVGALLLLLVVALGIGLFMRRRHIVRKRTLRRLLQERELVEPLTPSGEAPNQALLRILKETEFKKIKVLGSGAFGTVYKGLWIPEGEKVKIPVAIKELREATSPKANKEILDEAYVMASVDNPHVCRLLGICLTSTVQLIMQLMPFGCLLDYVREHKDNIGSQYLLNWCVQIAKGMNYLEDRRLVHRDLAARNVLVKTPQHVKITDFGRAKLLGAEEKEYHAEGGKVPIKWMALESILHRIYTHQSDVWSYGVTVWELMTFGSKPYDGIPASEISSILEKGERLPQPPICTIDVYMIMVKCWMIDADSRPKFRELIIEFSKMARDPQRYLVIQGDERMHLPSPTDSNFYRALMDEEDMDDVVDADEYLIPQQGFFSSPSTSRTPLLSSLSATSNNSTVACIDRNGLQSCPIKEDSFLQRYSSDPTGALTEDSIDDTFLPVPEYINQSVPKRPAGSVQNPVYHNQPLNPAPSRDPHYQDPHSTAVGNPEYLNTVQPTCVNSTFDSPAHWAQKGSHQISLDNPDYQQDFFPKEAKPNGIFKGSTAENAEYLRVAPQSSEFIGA

Structure (SMILES) | IC50 [µM]
C=CC(=O)N[C@H]1CCC[C@@H](Nc2nc(Nc3cnn(C)c3)ncc2Cl)C1 | 0.01 to 0.1
C=CC(=O)Nc1cccc(Nc2nc(Nc3cn(C)nc3C)ncc2Cl)n1 | 0.01 to 0.1
C=CC(=O)Nc1cccc(Nc2nc(NCc3cnn(C)c3)ncc2Cl)c1 | 0.01 to 0.1

molecular target: EGFR (human) (UniProt P00533); test: not given; details: a431

Structure (SMILES) | IC50 [µM]
CC(C)(C)C(=O)Nc1nc(Nc2cccc(F)c2)c2c(n1)[nH]c1cccc(Cl)c12 | > 250
CC(C)c1ccc(Nc2nc(NC(=O)C(C)(C)C)nc3[nH]c4cccc(Cl)c4c23)cc1 | > 250
CC(C)(C)C(=O)Nc1nc(Nc2ccc(Cl)cc2)c2c(n1)[nH]c1cccc(Cl)c12 | 55
COc1cccc(Nc2nc(N)nc3[nH]c4cccc(Cl)c4c23)c1 | 167
Nc1nc(Nc2ccc(Cl)cc2)c2c(n1)[nH]c1cccc(Cl)c12 | 44.1

molecular target: PIK3CG (human) (UniProt P48736); test: Assessment of PIK3CG Kinase Activity; details: not given

Structure (SMILES) | IC50 [µM]
COCCn1c(Cc2nc(N3CCOCC3)cc(=O)[nH]2)nc2ccccc21 | > 10

molecular target: PIK3CB;PIK3CG;PIK3CD;PIK3CA (human) (UniProt P48736); test: Inhibition of PIK3CA/PIK3CB/PIK3CD/PIK3CG Kinase Activity; details: not given

Structure (SMILES) | IC50 [µM]
C[C@H](Nc1nc(N)ncc1Cl)c1cc2cccc(Cl)c2nc1-c1ccccn1 | 0.106
Cc1cccc2cc(CNc3ccnc(C(N)=O)c3)c(-c3ccccc3Cl)nc12 | 15.3
Nc1ncc(F)c(NCc2cc3cccc(Cl)c3nc2-c2ccccc2Cl)n1 | 0.913
Fc1cnc(Cl)nc1NCc1cc2cccc(Cl)c2nc1-c1ccccc1Cl | 3.23
COc1c(Cl)ncnc1NCc1cc2cccc(Cl)c2nc1-c1ccccc1 | 0.724

molecular target: MAPK14 (human) (UniProt Q16539); test: Inhibition of MAPK14 Kinase Activity; details: not given

Structure (SMILES) | IC50 [µM]
Cc1ccc(C(N)=O)cc1Nc1nc(N[C@H]2CCNC2)nc(N(C)C2CCCCC2)n1 | 0.25
CCC(C)N(C)c1nc(Nc2cc(C(N)=O)ccc2C)nc(N[C@H]2CCNC2)n1 (stereo partly specified) | 0.028

molecular target: EGFR (human) (UniProt P00533); test: not given; details: not given; remark: another data set of the same source

Structure (SMILES) | IC50 [µM]
COc1cc2ncnc(Nc3ccc(F)c(Cl)c3)c2cc1O[C@H]1CCOC1 | 0.00013
COc1cc2ncnc(Nc3ccc(F)c(Cl)c3)c2cc1O[C@H]1CC[C@H](NC(=O)N2CCOCC2)CC1 | 0.0003
COc1cc2ncnc(Nc3ccc(F)c(Cl)c3)c2cc1O[C@H]1CC[C@H](NS(=O)(=O)N2CCOCC2)CC1 | 0.0004
CC.COc1cc2ncnc(Nc3ccc(F)c(Cl)c3)c2cc1OC1CCN(S(=O)(=O)N2CCOCC2)CC1 | 0.0001
COc1cc2ncnc(Nc3ccc(F)c(Cl)c3)c2cc1O[C@H]1CC[C@H](NS(=O)(=O)N(C)C)CC1 | 0.001

molecular target: MAPK14 (human) (UniProt Q16539); test: Inhibition of Doubly Phosphorylated MAPK14 Kinase Activity (Biochemical Assay); details: not given

Structure (SMILES) | IC50 [µM]
NC(=O)Cc1cccc(-n2nc(-c3ccccc3)cc2NC(=O)Nc2cccc(Cl)c2Cl)c1 | 0.012
Cc1ccsc1-c1cc(NC(=O)Nc2cccc(Cl)c2Cl)n(-c2cccc(CC(N)=O)c2)n1 | 0.086
NC(=O)Cc1cccc(-n2nc(-c3cccc(Cl)c3)cc2NC(=O)Nc2cccc(Cl)c2Cl)c1 | 0.058
NC(=O)Cc1cccc(-n2nc(-c3cccc(F)c3)cc2NC(=O)Nc2cccc(Cl)c2Cl)c1 | 0.021
NC(=O)Cc1cccc(-n2nc(-c3ccccc3F)cc2NC(=O)Nc2cccc(Cl)c2Cl)c1 | 0.01

molecular target: PIK3CA (human) (UniProt P42336); test: Inhibition of PIK3CA Kinase Activity; details: not given

Structure (SMILES) | IC50 [µM]
COCCn1c(Cc2nc(N3CCOCC3)cc(=O)[nH]2)nc2ccccc21 | > 10

system: ERBB2;PIK3CA (human), P42336 [Assessment of Cell Proliferation in MCF7.1 Cells Expressed by ERBB2/ PI3K(E545K)]; test: Assessment of Cell Proliferation in MCF7.1 Cells Expressed by ERBB2/ PI3K(E545K); details: not given

Structure (SMILES) | EC50
CN(Cc1cc2nc(-c3cnc(N)nc3)nc(N3CCOCC3)c2s1)S(C)(=O)=O | 0.17 µM
CC(C)(N)c1cc2nc(-c3cnc(N)nc3)nc(N3CCOCC3)c2s1 | 0.29 µM
CS(=O)(=O)c1cccc(-c2cc3nc(-c4cnc(N)nc4)nc(N4CCOCC4)c3s2)c1 | 0.04 µM and 0.033 µM
Nc1ncc(-c2nc(N3CCOCC3)c3sccc3n2)cn1 | 0.43 µM
CC(=O)N(C)Cc1cc2nc(-c3cnc(N)nc3)nc(N3CCOCC3)c2s1 | 0.19 µM and 0.187 µM

molecular target: EGFR (UniProt P00533); test: EGFR Kinase Inhibition; details: not given

Structure (SMILES) | IC50 [µM]
CC(C)[C@@H](NC1=C(CC2CCCC3CCCCC32)C(=O)C(O)=CC1=O)C(=O)O (stereo partly specified) | > 100
Cn1c(=O)c(-c2c(Cl)cccc2Cl)cc2cnc(NCCCCCC(=O)O)nc21 | 1
CN1CCN(CCCCCNc2ncc3cc(-c4c(Cl)cccc4Cl)c(=O)n(C)c3n2)CC1 | 4.5
C[C@@H](O)[C@@H](NC1=CC(=O)C(N[C@@H](C(=O)O)[C@@H](C)O)=CC1=O)C(=O)O | 44
COc1ccc(Nc2ncc3cc(-c4c(Cl)cccc4Cl)c(=O)n(C)c3n2)cn1 | 1.3

molecular target: MAPK14 (murine); test: Inhibition of MAPK14 Kinase Assay; details: not given

Structure (SMILES) | IC50 [µM]
COc1ccc(C(=O)N2CCC(Cc3cccc(NC(=O)Nc4cc(C(C)(C)C)nn4-c4ccc(C)cc4)c3)CC2)c(OC)c1 | 0.216
COc1ccc(C(=O)N2C3CCC2CC(Cc2ccccc2NC(=O)Nc2cc(C(C)(C)C)nn2-c2ccc(C)cc2)C3)c(OC)c1 (stereo unspecified) | 6.75
COc1ccc(C(=O)N2C3CCC2CC(Cc2ccc(NC(=O)Nc4cc(C(C)(C)C)nn4-c4ccc(C)cc4)cc2)C3)c(OC)c1 (stereo unspecified) | 1.17
COc1ccc(C(=O)N2CCC(Cc3ccccc3NC(=O)Nc3cc(C(C)(C)C)nn3-c3ccc(C)cc3)CC2)c(OC)c1 | 0.5
COc1ccc(C(=O)N2CCC(Cc3ccc(NC(=O)Nc4cc(C(C)(C)C)nn4-c4ccc(C)cc4)cc3)CC2)c(OC)c1 | 0.23

molecular target: PIK3CD (Human) (UniProt O00329); test: Inhibition of PIK3CD Kinase Activity; details: not given

Structure (SMILES) | IC50 [µM]
C[C@H](Nc1nc(N)ncc1Cl)c1cc2cccc(Cl)c2nc1-c1ccccn1 | 0.105

molecular target: PIK3CG (human) (UniProt P48736); test: Enzyme Assay; details: not given

Structure (SMILES) | IC50 [µM]
Nc1ncc(-c2cnc3ccc(-c4ccc(C(=O)N5CCN(Cc6ccccn6)CC5)cc4)nn23)cc1C(F)(F)F | 1.27

molecular target: CDK2 (human) (UniProt P24941); test: Enzyme Assay; details: not given

Structure (SMILES) | IC50 [µM]
Cc1ccnc(NS(=O)(=O)c2ccc(Nc3nc(C)c4c(=O)[nH]c(Nc5ccc(S(=O)(=O)O)cc5)nc4n3)cc2)n1 | > 10
Cc1ccnc(NS(=O)(=O)c2ccc(Nc3nc(C)c4c(=O)[nH]c(Nc5cccc(Cl)c5)nc4n3)cc2)n1 | 0.05

molecular target: EGFR (murine) (UniProt P00533); test: not given; details: nih3t3
Sequence (P00533 whole entry, looked up): as the sequence (P00533 whole entry, looked up) above

Structure (SMILES) | IC50 [µM]
c1ccc(Nc2ccc3ncc(-c4ccccc4)nc3n2)cc1 | > 50
Fc1ccc(CNc2ccc3nc(-c4ccccc4)c(-c4ccccc4)nc3n2)cc1 | > 100
Oc1ccc(-c2cnc3ccc(NCc4ccccc4)nc3n2)cc1 | > 50
COc1ccc2nc(C)c(-c3ccccc3)nc2n1 | > 100
Cc1nc2ccc(NCc3ccc(F)cc3)nc2nc1-c1ccccc1 | > 100
COc1ccc2nc(-c3ccccc3)c(-c3ccccc3)nc2n1 | > 100
